Where a name gives a salt, the structure may show the parent alone.

The source of these data is patent US20240391931A1 (Bristol-Myers Squibb Company, priority 2021, published 2024).

The target in test [1] is T1, HER2YVMA (Homo sapiens, UniProt P04626, INS775YVMA). As to the kind of experiment: HER2 occupancy assay in Ba/F3-HER2YVMA cells. Details: expressed in transfected cells; host or cells: Ba/F3 (clones); lentiviral vector pCDH-CMV-MCS-EF1-Neo. To be noted: concentration at which 50% of HER2 is irreversible bound, read-out: Ba/F3 YVMA HER2 Occ. It counts as cell-based. The procedure:
In order to assess free HER2 protein, a biotinylated probe was utilized. BT474, N87, and Ba/F3-HER2YVMA cells were treated with test compound as described for HER2 signaling. After compound treatment, cells were washed three times with cold phosphate buffer saline (PBS, Life Technologies, Carlsbad, CA), and lysed in modified occupancy lysis buffer prepared with an irreversible biotinylated tool compound (1 μM) in 25 mM Tris pH 7.5, 150 mM NaCl, 1% Triton, and supplemented with cOmplete, EDTA-free Protease inhibitor cocktail (Roche), Phosphatase Inhibitor Cocktails 2 and 3 (Sigma-Aldrich), and 1 mM PMSF (Sigma-Aldrich). To determine % occupancy, lysates were loaded into duplicate plates of the phospho ([…])/total ErbB2 whole cell lysate MSD kit (Meso-Scale Discovery) and incubated overnight. Plates were washed and incubation with either HER2-sulfoTag (1:50, Meso Scale Discovery) or Strep-Sulfo Tag (1:1000, Meso Scale Discovery), for detection of […]. A standard curve of untreated cells in serial dilution was included in each plate to independently fit streptavidin (Free HER2) and total HER2 MSD signals; non-specific signal (BSA control spots) was subtracted from each well. Free HER2 was then normalized by total HER2 for each sample. The results are reported as % DMSO control. The normalized data was fitted using a sigmoidal curve analysis program (Graph Pad Prism version 6) with variable Hill slope to determine EC50 values. The results are provided in Table 4, under columns titled “BT474-HER2 Occ”, “N87-HER2 Occ”, and “Ba/F3 YVMA-HER2 Occ”. HER2 Occ is the concentration of test compound at which 50% of HER2 is irreversible bound.

Test [2] has as its target T1, HER2YVMA. As to the kind of experiment: HER2 signaling (pHER2) in Ba/F3-HER2YVMA cells. It counts as cell-based. Details: expressed in transfected cells; host or cells: HEK293 (pool), Ba/F3 (clones), BEAS2B (clones); lentiviral vector pCDH-CMV-MCS-EF1-Neo. Conditions: read-out: Ba/F3 YVMA pHER2 EC50. The procedure:
Cell culture, plasmid cloning, and lentiviral transduction were carried out according to standard procedures. The Human HER2 cDNA construct in pCMV6-Entry for the HER2 wildtype (WT) expression was obtained from Origene. The HER2 cDNA including the 12-nucleotide insertion corresponding to YVMA insertion (HER2YVMA) was codon optimized, synthesized and cloned by GenScript (Piscataway, NJ) in pcDNA3.1. The lentiviral constructs expressing HER2YVMA and HER2 WT were sub-cloned using PCR at System Biosciences (SBI, Mountainview, CA) into lentiviral vectors pCDH-CMV-MCS-EF1-Neo and lentiviral particles were generated.
Engineered lines expressing HER2YVMA and HER2 WT were prepared in HEK293 (human embryonic kidney cells), Ba/F3 (Interleukin 3 (IL3)-dependent murine pro B cell line), and BEAS2B (primary immortalized human bronchial epithelial cell line). Ba/F3, BEAS2B, and HEK293 cells were obtained from the American Type Culture Collection (ATCC, Manassas, VA). Parental Ba/F3 cells were grown in suspension in complete RPMI 1640 supplemented with 10% FBS and 1% P/S and 10 ng/ml interleukin 3 (IL3, Sigma-Aldrich). Hek293 and BEAS2B cells were grown as monolayers in DMEM supplemented with 10% FBS and 1% P/S. All cells were maintained and propagated in a humidified 5% CO2 incubator at 37° C.
To generate Ba/F3, BEAS2B, and Hek-293 cells engineered with lentivirus to express HER2 WT or HER2YVMA, the cells were transduced with lentiviruses at multiplicity of infection (MOI) of 1 or 10; transduced cells were selected and maintained with G418 ([…]) (Geneticin, Life Technologies, Carlsbad, CA). Ba/F3 engineered cells were subjected to gradual withdrawal of interleukin 3 (IL-3, Sigma-Aldrich). After selection, IL3 independent Ba/F3 HER2YVMA, and BEAS2B HER2YVMA cells were cloned by limiting dilution. Hek293 HER2YVMA cells were used as pool. HER2 and phospho HER2 levels were confirmed by flow cytometery and immunoassay (MSD, Meso-Scale Discovery, Rockville, Maryland).
Compound treatment of Ba/F3-HER2YVMA suspension cells was done as described with minor modifications. Cells were plated at 300000 cell/well in 96-well round bottom plates in RPMI supplemented with 2% FBS and immediately dosed with compounds serially diluted in media without serum for a final concentration of 1% FBS, 0.1% DMSO. Cells were incubate with compounds for 1.5 hr, and plates were spun at 1500 rpm for 5 mins to remove media without disturbing pellet. Cells were lysed as described above.
HER2 signaling was evaluated using phospho (Tyr1248)/total ErbB2 whole cell lysate MSD plates (Meso-Scale Discovery, Gaithersburg, MD). The phospho HER2 signal was normalized to total HER2 for each sample; results are reported as % DMSO control. The normalized data was fitted using a sigmoidal curve analysis program (Graph Pad Prism version 6) with variable Hill slope to determine EC50 values.
The HER2 signaling results are provided in Table 4, under columns titled “BT474-pHER2 EC50”, “N87-pHER2 EC50”, and “NCI-H1781-pHER2 EC50”. Hek293-HER2YVMA ins fall under the heading “HEKYVMA-pHER2 EC50”, Ba/F3 HER2YVMA fall under the heading “Ba/F3 YVMA-pHER2 EC50” and BEAS2B-HER2YVMA fall under the heading “BEAS2B YVMA-pHER2 EC50”.

T1 sequence (P04626 with tags, fused parts or gaps INS775YVMA): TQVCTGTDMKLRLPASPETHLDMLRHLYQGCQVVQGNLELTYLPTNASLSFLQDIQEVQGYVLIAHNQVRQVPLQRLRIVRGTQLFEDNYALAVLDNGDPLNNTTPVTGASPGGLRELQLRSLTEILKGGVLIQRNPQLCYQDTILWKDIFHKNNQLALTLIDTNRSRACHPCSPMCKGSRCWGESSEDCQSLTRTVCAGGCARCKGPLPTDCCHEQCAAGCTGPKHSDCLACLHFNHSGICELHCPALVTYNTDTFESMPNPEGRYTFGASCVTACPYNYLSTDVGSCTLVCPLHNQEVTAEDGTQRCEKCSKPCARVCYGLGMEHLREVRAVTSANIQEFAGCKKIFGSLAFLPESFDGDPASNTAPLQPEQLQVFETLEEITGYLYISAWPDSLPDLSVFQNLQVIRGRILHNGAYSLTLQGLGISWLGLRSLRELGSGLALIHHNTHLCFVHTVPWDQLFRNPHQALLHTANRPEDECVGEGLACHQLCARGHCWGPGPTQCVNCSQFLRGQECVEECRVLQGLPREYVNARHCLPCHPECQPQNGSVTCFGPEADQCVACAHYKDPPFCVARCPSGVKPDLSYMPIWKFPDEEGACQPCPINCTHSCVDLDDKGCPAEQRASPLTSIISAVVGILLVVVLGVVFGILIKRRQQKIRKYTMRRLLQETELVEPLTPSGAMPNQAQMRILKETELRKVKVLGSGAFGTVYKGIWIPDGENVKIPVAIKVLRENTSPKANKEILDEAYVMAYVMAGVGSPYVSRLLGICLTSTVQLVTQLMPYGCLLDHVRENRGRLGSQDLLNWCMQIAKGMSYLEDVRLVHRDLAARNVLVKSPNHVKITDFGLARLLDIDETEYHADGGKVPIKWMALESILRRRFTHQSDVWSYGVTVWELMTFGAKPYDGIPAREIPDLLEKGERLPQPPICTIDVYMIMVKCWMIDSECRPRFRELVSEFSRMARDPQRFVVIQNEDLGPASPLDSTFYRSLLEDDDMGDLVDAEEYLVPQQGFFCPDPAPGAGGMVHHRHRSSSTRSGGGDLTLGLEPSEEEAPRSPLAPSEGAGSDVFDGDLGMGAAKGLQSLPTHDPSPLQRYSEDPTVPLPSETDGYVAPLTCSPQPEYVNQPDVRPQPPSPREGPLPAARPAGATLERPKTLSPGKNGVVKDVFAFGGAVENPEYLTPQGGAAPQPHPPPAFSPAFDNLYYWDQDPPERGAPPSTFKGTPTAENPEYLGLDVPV

Consider `Cc1ccc(Oc2ccc(Nc3ncnc4sc5c(c34)CCN(C(=O)/C=C/CN3CCOCC3)C5)cc2C)cn1` [Compound 17, (E)-1-(4-((3-Methyl-4-((6-methylpyridin-3-yl)oxy)phenyl)amino)-5,6-dihydropyrido[4′,3′:4,5]thieno[2,3-d]pyrimidin-7(8H)-yl)-4-morpholinobut-2-en-1-one], for which the EC50 at HER2YVMA [1] and on HER2YVMA [2] was < 100 nM each time.
Turning to `Cc1ccc(Oc2ccc(Nc3ncnc4sc5c(c34)CCN(C(=O)/C=C/CN(C)C)C5)cc2C)cn1` [Compound 8, (E)-4-(Dimethylamino)-1-(4-((3-methyl-4-((6-methylpyridin-3-yl)oxy)phenyl)amino)-5,6-dihydropyrido[4′,3′:4,5]thieno[2,3-d]pyrimidin-7(8H)-yl)but-2-en-1-one], the EC50 at HER2YVMA [1] and on HER2YVMA [2] was < 100 nM throughout.
In the case of `Cc1ccc(Oc2ccc(Nc3ncnc4sc5c(c34)CCN(C(=O)/C=C/CN3CC4CCC(C4)C3)C5)cc2C)cn1` [Compound 16, (E)-4-(3-azabicyclo[3.2.1]octan-3-yl)-1-(4-((3-methyl-4-((6-methylpyridin-3-yl)oxy)phenyl)amino)-5,8-dihydropyrido[4′,3′:4,5]thieno[2,3-d]pyrimidin-7(6H)-yl)but-2-en-1-one benzenesulfonate salt], the EC50 on HER2YVMA [1] and on HER2YVMA [2] was < 100 nM throughout.
`Cc1cc(Nc2ncnc3sc4c(c23)CCN(C(=O)/C=C/CN2CCOCC2)C4)ccc1Oc1ccc2ncnn2c1` [Compound 12]: the EC50 on HER2YVMA [2] is < 100 nM.
